These results are taken from ChEMBL document CHEMBL1201862, “PubChem BioAssay data set” (2004).

Among the test systems are SW-620; NCI-H460; EKVX; HOP-92; HOP-62; SK-MEL-28; SF-295; Malme-3M; CAKI-1; HT-29; MOLT-4; A549; SK-OV-3; HCT-15; NCI-H226; MDA-MB-435; SNB-19; KM12.
Assay in all cases: inhibition of tumour cell growth, NCI panel, 48 h

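Following 48 hours of exposure in 96-well plates, responses at five concentrations were used to interpolate endpoints linearly. GI50 marks 50% less growth.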 Activity calls are given as the source filed them. Cut-off read from the data, not from the text of the source: active = GI50 up to about 1.1 µM and inactive = higher. A value given as a limit tells only on which side of the number the result lay.

As to `NC(Cc1ccccc1)C(=O)N[C@H]1c2ccsc2/C(=N/O)[C@H]1O` (stereo partly specified), the GI50 with SW-620, in the assay on NCI-H460, in the assay on EKVX, in the assay with HOP-92, in the assay with HOP-62 and in the assay on SK-MEL-28 was > 100 µM (inactive) in each case. Moreover, the GI50 in the assay with SF-295 is > 100 µM (inactive); in the assay with Malme-3M it was > 100 µM (inactive); in the assay with CAKI-1 it was > 100 µM (inactive); in the assay on HT-29, > 100 µM (inactive); in the assay on MOLT-4, > 10 µM (inactive); in the assay with A549, > 100 µM (inactive). Also, the GI50 in the assay with SK-OV-3 is > 100 µM (inactive); with HCT-15 it was over 100 µM; with NCI-H226, > 100 µM (inactive); in the assay with MDA-MB-435 it was > 100 µM (inactive).

Take `Cc1ccc(S(=O)ON2CCC(C(=O)O)(c3ccccc3)CC2)cc1` (stereo unspecified): the GI50 with SW-620 is > 100 µM (inactive); in the assay with NCI-H460 it was > 100 µM (inactive); in the assay with EKVX, 33.3 µM (inactive); in the assay with SNB-19, > 100 µM (inactive); in the assay on HOP-92 it was 45.5 µM (inactive); in the assay on HOP-62, > 100 µM (inactive). Also, the GI50 with SK-MEL-28, with SF-295, in the assay on Malme-3M, in the assay with CAKI-1, with HT-29 and in the assay with MOLT-4 was > 100 µM (inactive) each time. Besides, the GI50 is > 100 µM (inactive) in the assay with A549; > 100 µM (inactive) with KM12; > 100 µM (inactive) in the assay with SK-OV-3; over 100 µM in the assay on HCT-15; > 100 µM (inactive) in the assay with NCI-H226; > 100 µM (inactive) in the assay on MDA-MB-435.

Consider `CCCCCCCCOc1ccc(/C=C/C2=[N+](CCO)CCO2)cc1`, for which the GI50 with SW-620 is 2.43 µM (inactive); in the assay on NCI-H460, 3.07 µM (inactive); in the assay with EKVX, 3.94 µM (inactive); with SNB-19 it was 3.83 µM (inactive); in the assay with HOP-92 it was 2.34 µM (inactive); with HOP-62 it was 8.63 µM (inactive). In addition, the GI50 is 4.53 µM (inactive) in the assay with SK-MEL-28; 3.96 µM (inactive) in the assay with SF-295; 3.04 µM (inactive) in the assay with Malme-3M; 7.05 µM (inactive) in the assay with CAKI-1; 2.4 µM (inactive) in the assay on HT-29; 3.65 µM (inactive) in the assay on MOLT-4. Further, the GI50 was 2.7 µM (inactive) in the assay on A549; 3.27 µM (inactive) with KM12; 2.54 µM (inactive) with SK-OV-3; 12.1 µM in the assay on HCT-15; 3.01 µM (inactive) with NCI-H226; 3.52 µM (inactive) in the assay on MDA-MB-435.

As to `CC(C)(C)OC(=O)NCC(C#N)CNC(=O)OC(C)(C)C`, the GI50 in the assay on SW-620, in the assay on NCI-H460, in the assay with EKVX, in the assay with SNB-19, with HOP-92 and with HOP-62 was > 100 µM (inactive) in each case. Further, the GI50 in the assay on SK-MEL-28 was > 100 µM (inactive); in the assay on SF-295, > 100 µM (inactive); in the assay on Malme-3M, > 100 µM (inactive); in the assay with CAKI-1 it was > 10 µM (inactive); in the assay with MOLT-4, > 100 µM (inactive); with A549, > 100 µM (inactive). Further, the GI50 is > 100 µM (inactive) in the assay on KM12; > 100 µM (inactive) in the assay with SK-OV-3; over 100 µM in the assay with HCT-15; > 100 µM (inactive) in the assay on NCI-H226; > 100 µM (inactive) in the assay with MDA-MB-435.

In the case of `CCCCc1ccc(Nc2cc(=O)n(C)c(=O)[nH]2)cc1`, the GI50 with SW-620 is > 100 µM (inactive); in the assay with NCI-H460, 32.2 µM (inactive); in the assay on EKVX, > 100 µM (inactive); in the assay with SNB-19, 52.1 µM (inactive); in the assay on HOP-92, 26.7 µM (inactive); in the assay with HOP-62, > 100 µM (inactive). Also, the GI50 in the assay on SK-MEL-28, in the assay with SF-295, in the assay with Malme-3M, in the assay with CAKI-1, in the assay with HT-29 and in the assay on A549 was > 100 µM (inactive) each time. In addition, the GI50 with KM12 was 49.4 µM (inactive); with SK-OV-3, > 100 µM (inactive); in the assay with HCT-15, 93.1 µM; in the assay on NCI-H226, > 100 µM (inactive); in the assay with MDA-MB-435 it was > 100 µM (inactive).

`CC(C)Oc1cccc(N2C(NCc3c[nH]c4ccccc34)=Nc3ccncc3S2(=O)=O)c1`: the GI50 was 33.7 µM (inactive) with SW-620; 18.5 µM (inactive) with NCI-H460; 23.1 µM (inactive) with EKVX; 32.4 µM (inactive) in the assay on SNB-19; 15.4 µM (inactive) with HOP-92; 30.9 µM (inactive) in the assay with HOP-62. The GI50 with SK-MEL-28 was 45.8 µM (inactive); with SF-295 it was 18.7 µM (inactive); in the assay with Malme-3M, 20.5 µM (inactive); in the assay with CAKI-1, 32.1 µM (inactive); with HT-29, 25.1 µM (inactive); with MOLT-4 it was 16.7 µM (inactive). Besides, the GI50 in the assay with A549 is 20.4 µM (inactive); with KM12, 33.3 µM (inactive); with SK-OV-3, 33.2 µM (inactive); in the assay on HCT-15, 22.5 µM; with NCI-H226 it was 45.4 µM (inactive); in the assay with MDA-MB-435, 32.4 µM (inactive).

Turning to `Cc1cccc(C)c1/N=N/c1ccc(O)c(CN(C)C)c1`, the GI50 was 91.2 µM (inactive) in the assay on SW-620; 26 µM (inactive) with NCI-H460; > 100 µM (inactive) in the assay with EKVX; > 100 µM (inactive) with SNB-19; 3.21 µM (inactive) in the assay on HOP-92; 51.6 µM (inactive) in the assay with HOP-62. The GI50 in the assay with SK-MEL-28 was 20.7 µM (inactive); in the assay with SF-295, 71.6 µM (inactive); with Malme-3M it was 20.5 µM (inactive); in the assay with CAKI-1, 79.4 µM (inactive); with HT-29, 22.7 µM (inactive); with MOLT-4 it was 34.8 µM (inactive). Moreover, the GI50 was 65.9 µM (inactive) in the assay with A549; > 100 µM (inactive) in the assay on KM12; > 100 µM (inactive) with SK-OV-3; over 100 µM with HCT-15; 87.9 µM (inactive) with NCI-H226; 41.8 µM (inactive) in the assay on MDA-MB-435.

As to `Cc1ccc(S(=O)(=O)NNC(C[N+](=O)[O-])c2ccccc2)cc1` (stereo unspecified), the GI50 in the assay on SW-620 is 11.5 µM (inactive); in the assay with NCI-H460 it was 17.9 µM (inactive); in the assay with EKVX it was 75.5 µM (inactive); with SNB-19 it was 7.14 µM (inactive); with HOP-92, 39.8 µM (inactive); in the assay on HOP-62, 26.7 µM (inactive). Further, the GI50 was 21.3 µM (inactive) with SF-295; 29 µM (inactive) in the assay on Malme-3M; 22.5 µM (inactive) in the assay on CAKI-1; 2.02 µM (inactive) in the assay with HT-29; 3.56 µM (inactive) in the assay on MOLT-4; 16.7 µM (inactive) with A549. Further, the GI50 is 14.1 µM (inactive) in the assay with KM12; 21.9 µM (inactive) in the assay on SK-OV-3; 15.9 µM in the assay with HCT-15; 26.3 µM (inactive) in the assay with NCI-H226; 2.91 µM (inactive) in the assay with MDA-MB-435.

Regarding `N#CC1=C2SCCN2C(=O)C(C#N)C12CCCCC2` (stereo unspecified), the GI50 in the assay with SW-620, with NCI-H460, in the assay on EKVX, in the assay with SNB-19, with HOP-92 and with HOP-62 was > 100 µM (inactive) throughout. The GI50 with SK-MEL-28, with SF-295, in the assay on Malme-3M, in the assay on CAKI-1, in the assay on HT-29 and in the assay on MOLT-4 was > 100 µM (inactive) each time. The GI50 in the assay on A549 was > 100 µM (inactive); in the assay with KM12, > 100 µM (inactive); with SK-OV-3, > 100 µM (inactive); with HCT-15, over 100 µM; in the assay on NCI-H226, > 100 µM (inactive); in the assay with MDA-MB-435, > 100 µM (inactive).

Take `O=C(O)CSc1ccc(N=C=S)cc1`: the GI50 with SW-620 was > 100 µM (inactive); in the assay on NCI-H460, 56.9 µM (inactive); in the assay on EKVX it was > 100 µM (inactive); in the assay on SNB-19 it was > 100 µM (inactive); in the assay with HOP-92 it was > 100 µM (inactive); in the assay on HOP-62 it was 54.1 µM (inactive). Moreover, the GI50 in the assay on SK-MEL-28 is 34.8 µM (inactive); with SF-295, 89.3 µM (inactive); with Malme-3M, 27.4 µM (inactive); with CAKI-1 it was > 100 µM (inactive); with HT-29, > 100 µM (inactive); with MOLT-4, 20.4 µM (inactive). Moreover, the GI50 was > 100 µM (inactive) with A549; > 100 µM (inactive) in the assay on KM12; > 100 µM (inactive) in the assay with SK-OV-3; 62.8 µM with HCT-15; 54.5 µM (inactive) in the assay on NCI-H226; 81.8 µM (inactive) with MDA-MB-435.

Take `CCN(CC)C1Oc2cc3c(cc2C(c2cc(OC)c(OC)c(OC)c2)C1C)OCO3` (stereo unspecified): the GI50 with SW-620 was 0.531 µM (active); in the assay with NCI-H460, 0.944 µM (active); with EKVX it was 10.4 µM (inactive); in the assay with SNB-19, 1.29 µM (inactive); with HOP-92 it was 0.676 µM (active); with HOP-62 it was 0.471 µM (active). Also, the GI50 in the assay with SK-MEL-28 was 0.719 µM (active); in the assay on SF-295, 0.441 µM (active); with Malme-3M, 0.748 µM (active); in the assay on CAKI-1, 1.85 µM (inactive); in the assay on HT-29, 0.603 µM (active); in the assay on MOLT-4, 0.871 µM (active). Also, the GI50 was 1.55 µM (inactive) in the assay on A549; 0.53 µM (active) in the assay with KM12; 1.1 µM (active) with SK-OV-3; 0.518 µM in the assay with HCT-15; 0.875 µM (active) in the assay with NCI-H226; 0.113 µM (active) with MDA-MB-435.

Regarding `CCOC(=O)Cc1nc2cc(F)c(F)cc2[nH]c1=O`, the GI50 with SW-620, in the assay with NCI-H460, in the assay with EKVX, in the assay on SNB-19, in the assay on HOP-92 and in the assay on HOP-62 was > 100 µM (inactive) throughout. Besides, the GI50 in the assay with SK-MEL-28, in the assay with SF-295, in the assay with Malme-3M, in the assay with CAKI-1, in the assay with HT-29 and with MOLT-4 was > 100 µM (inactive) each time. Further, the GI50 in the assay with A549 was > 100 µM (inactive); with KM12, > 100 µM (inactive); with SK-OV-3 it was > 100 µM (inactive); in the assay with HCT-15, over 100 µM; in the assay with NCI-H226, > 100 µM (inactive); in the assay on MDA-MB-435 it was > 100 µM (inactive).
